The numbers were not newly measured in US20210379059A1, “COMBINATION OF SUBSTANCES FOR REGENERATIVE THERAPY IN PATIENTS WITH TYPE 1 DIABETES MELLITUS” (Levicure Ltd., priority 2018, published 2021), which cites them from elsewhere.

Molecules are shown by their SMILES. Where two headings read alike, the source gives them in different places.

The subject of data set [1] is β-cells. As to conditions: mouse cell cultures.
Data set [2] has as its system β-cells. As to conditions: human cell cultures.
In data set [3] the test system is adult patients with type 1 diabetes. The settings on record: 8 weeks, despite a reduction of total and lunch dose of insulin.

On to `NCCCC(=O)O` [GABA, gamma-aminobutyric acid], for which the “regeneration of β-cells” value in the data set on β-cells [1] and in the data set with β-cells [2] was “provide the regeneration of β-cells” each time. As for `N[C@@H](CC(=O)N1CCn2c(nnc2C(F)(F)F)C1)Cc1cc(F)c(F)cc1F` [Sitagliptin], the blood glucose levels entry in data set [3] is “significantly reduced”.
